ChEMBL document CHEMBL1201862, “PubChem BioAssay data set” (2004)
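Following 48 hours of exposure in 96-well plates, responses at five concentrations were used to interpolate endpoints linearly. GI50: concentration for 50% inhibition of growth.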 Activity calls are given as the source filed them. Rule as the data show it: active = GI50 up to about 1.1 µM and inactive = higher.

Legend:
Assay in all cases: NCI anticancer screen, dose series, 48 h
ACHN = test system: ACHN
COLO 205 = test system: COLO 205
DU-145 = test system: DU-145
IGROV-1 = test system: IGROV-1
K562 = test system: K562
MCF7 = test system: MCF7
MDA-MB-231 = test system: MDA-MB-231
NCI-H226 = test system: NCI-H226
OVCAR-5 = test system: OVCAR-5
RXF 393 = test system: RXF 393
SK-MEL-2 = test system: SK-MEL-2
SK-OV-3 = test system: SK-OV-3
SNB-19 = test system: SNB-19
SW-620 = test system: SW-620
UACC-257 = test system: UACC-257
UACC-62 = test system: UACC-62
Malme-3M = test system: Malme-3M
SK-MEL-28 = test system: SK-MEL-28
SNB-75 = test system: SNB-75

Measured: GI50

C=CCNC(=S)N/C=C(/C(C)=O)C(=O)Nc1ccccc1C
inactive: ACHN > 100 µM | COLO 205 > 100 µM | DU-145 > 100 µM | IGROV-1 > 100 µM | K562 > 100 µM | MCF7 > 100 µM | MDA-MB-231 > 100 µM | NCI-H226 > 100 µM | OVCAR-5 > 100 µM | RXF 393 > 100 µM | SK-MEL-2 > 100 µM | SK-OV-3 > 100 µM | SNB-19 > 100 µM | SW-620 > 100 µM | UACC-257 > 100 µM | UACC-62 > 100 µM

CCN1CCN(c2ccc(Nc3ccnc4ccc5c(nnn5C)c34)cc2)CC1
inactive: ACHN 2.99 µM | COLO 205 2.78 µM | DU-145 5.25 µM | IGROV-1 12.9 µM | K562 3.61 µM | MCF7 4.44 µM | MDA-MB-231 8.55 µM | Malme-3M 5.89 µM | OVCAR-5 9.16 µM | RXF 393 7.19 µM | SK-MEL-28 11.1 µM | SK-MEL-2 12.2 µM | SK-OV-3 11.4 µM | SNB-19 3.15 µM | SNB-75 13.9 µM | SW-620 3.93 µM | UACC-257 13.2 µM | UACC-62 13.7 µM

COC(=O)C1=C(C)NC(C)=C(C(=O)OC)C1c1ccccc1NO
inactive: ACHN > 100 µM | COLO 205 > 100 µM | DU-145 > 100 µM | IGROV-1 > 100 µM | K562 20.1 µM | MCF7 > 100 µM | MDA-MB-231 65.6 µM | Malme-3M > 100 µM | NCI-H226 > 100 µM | OVCAR-5 > 100 µM | RXF 393 > 100 µM | SK-MEL-28 > 100 µM | SK-MEL-2 > 100 µM | SK-OV-3 > 100 µM | SNB-19 > 100 µM | SW-620 68.1 µM | UACC-257 > 100 µM | UACC-62 > 100 µM

c1ccc(CCNc2ccccn2)nc1
inactive: ACHN > 100 µM | COLO 205 > 100 µM | DU-145 > 100 µM | IGROV-1 > 100 µM | MCF7 > 100 µM | MDA-MB-231 > 100 µM | Malme-3M > 100 µM | NCI-H226 > 100 µM | OVCAR-5 > 100 µM | RXF 393 > 100 µM | SK-MEL-28 > 100 µM | SK-MEL-2 > 100 µM | SK-OV-3 > 100 µM | SNB-19 > 100 µM | SW-620 > 100 µM | UACC-257 > 100 µM | UACC-62 > 100 µM

Cc1cc2c(=O)[nH]nc(N)c2c(N)n1
inactive: ACHN > 100 µM | COLO 205 > 100 µM | DU-145 > 100 µM | IGROV-1 > 100 µM | K562 > 100 µM | MCF7 > 100 µM | MDA-MB-231 > 100 µM | Malme-3M > 100 µM | NCI-H226 > 100 µM | OVCAR-5 > 100 µM | RXF 393 > 100 µM | SK-MEL-28 > 100 µM | SK-MEL-2 > 100 µM | SK-OV-3 > 100 µM | SNB-19 > 100 µM | SW-620 > 100 µM | UACC-257 > 100 µM | UACC-62 > 100 µM

CSc1cc(Cl)c(C)cc1S(=O)(=O)NC(=O)NNc1cnc2ccccc2n1
inactive: ACHN > 100 µM | COLO 205 > 100 µM | DU-145 > 100 µM | IGROV-1 > 100 µM | K562 > 100 µM | MCF7 > 100 µM | MDA-MB-231 > 100 µM | Malme-3M > 100 µM | NCI-H226 > 100 µM | OVCAR-5 > 100 µM | RXF 393 > 100 µM | SK-MEL-28 > 100 µM | SK-MEL-2 > 100 µM | SK-OV-3 > 100 µM | SNB-19 > 100 µM | SW-620 > 100 µM

COc1ccc(-c2nc(SCC(=O)N/N=C/c3ccc(O)c(OC)c3)[nH]c2-c2ccc(OC)cc2)cc1
inactive: ACHN 18.2 µM | COLO 205 19.8 µM | DU-145 39.8 µM | K562 20 µM | MCF7 17.9 µM | MDA-MB-231 24.7 µM | Malme-3M 37.8 µM | OVCAR-5 27.8 µM | RXF 393 18.6 µM | SK-MEL-28 28.4 µM | SK-MEL-2 17.3 µM | SK-OV-3 29.4 µM | SNB-19 41.1 µM | SNB-75 47.5 µM | SW-620 30.8 µM | UACC-257 25.5 µM | UACC-62 14.1 µM

COCN1C(=O)[C@@H]2CCCN2C(=O)c2cc(OC)c(Cc3ccccc3)cc21
inactive: ACHN > 100 µM | DU-145 > 100 µM | IGROV-1 62.7 µM | MCF7 61.5 µM | MDA-MB-231 49.5 µM | Malme-3M > 100 µM | OVCAR-5 > 100 µM | RXF 393 34.3 µM | SK-MEL-28 > 100 µM | SK-MEL-2 > 100 µM | SK-OV-3 > 100 µM | SNB-19 > 100 µM | SNB-75 60.4 µM | SW-620 > 100 µM | UACC-257 > 100 µM | UACC-62 > 100 µM
